From patent US20110021515A1, “DIHYROFUROPYRMINDINE COMPOUNDS” (TAKEDA PHARMACEUTICAL COMPANY LIMITED, priority 2009, published 2011) come the findings set out here.

The target in the assay is T1, human mTOR (Homo sapiens, UniProt P42345).
T1 construct: purchased Invitrogen
Briefly: Inhibition of mTOR (LanthaScreen TR-FRET, GFP-4E-BP1 substrate). Type of assay: biochemical. The note with it: purified mTor, GFP-4E-BP1 and ATP, 30 min at room temperature; read-out: pIC50 for inhibition of human mTOR in the assay of Example A (converted). As for the experimental part:
Example A Inhibition of mTOR
Purified mTor are purchased from Invitrogen. mTor activity was determined using Invitrogen's LanthaScreen system. The inhibitory properties of compounds relative to mTor may be determined using a black 384-well-plate format in the following buffer 50 mM Hepes, 10 mM NaCl, 10 mM MgCl2, 0.2 mM EDTA, 0.01% Brij35, 2 mM DTT at pH7.3. The test compound is prepared in DMSO using 2 fold serial dilutions for 11 data points which are added to the buffer so that each dilution contains 3% DMSO.
An assay for mTor inhibition is as follows:
Combine in each well 2 μl of 1.2 μM GFP-4E-BP1 (Invitrogen) and 150 μM ATP (in buffer), 2 μl of diluted test compound (3% DMSO in buffer), and 2 μl of 6 nM mTor in buffer. The reaction mixture is then incubated at room temperature for 30 min, and quenched by adding 40 mM ETDA with 4 nM Tb-anti-p4E-BP1 [pThr46] antibody in TR-FRET dilution buffer (Invitrogen). The plate is kept at room temperature for 1 hour and then read using PheraStar (BMG labtech) LanthaScreen mode.
pIC50 values, the negative of the log of the IC50, are calculated by non-linear curve fitting of the compound concentrations and percent of inhibition to the standard pIC50 equation.
For orientation: In TR-FRET formats the signal depends on donor and acceptor labels being close together.
With `CNC(=O)Nc1ccc(-c2nc(N3CCOCC3)c3c(n2)C(C)(C)CO3)cc1` [Example 2, 1-(4-(7,7-dimethyl-4-morpholino-6,7-dihydrofuro[3,2-d]pyrimidin-2-yl)phenyl)-3-methylurea], the IC50 is < 31.6 nM. Regarding `O=C(Nc1ccc(-c2nc(N3CCOCC3)c3c(n2)C2(CC2)OC3)cc1)NC1CC1` [Example 15, 1-cyclopropyl-3-(4-(4′-morpholino-5′H-spiro[cyclopropane-1,7′-furo[3,4-d]pyrimidine]-2′-yl)phenyl)urea], the IC50 is < 31.6 nM. Then `CNC(=O)Nc1ccc(-c2nc(N3CC4CCC(C3)O4)c3c(n2)C(C)(O)OC3)cc1` (stereo not drawn) [Example 12, 1-(4-(4-(8-oxa-3-azabicyclo[3.2.1]octan-3-yl)-7-hydroxy-7-methyl-5,7-dihydrofuro[3,4-d]pyrimidin-2-yl)phenyl)-3-methylurea], with 31.6 to 1000 nM; and `CCNC(=O)Nc1ccc(-c2nc(N3CC4CCC(C3)O4)c3c(n2)C(C)(C)OC3)cc1` [Example 9, 1-(4-(4-(8-oxa-3-azabicyclo[3.2.1]octan-3-yl)-7,7-dimethyl-5,7-dihydrofuro[3,4-d]pyrimidin-2-yl)phenyl)-3-ethylurea], with < 31.6 nM. Then `CNC(=O)Nc1ccc(-c2nc(N3CCOCC3)c3c(n2)C(C)(C)OC3)cc1` [Example 8, 1-(4-(7,7-dimethyl-4-morpholino-5,7-dihydrofuro[3,4-d]pyrimidin-2-yl)phenyl)-3-methylurea], with < 31.6 nM; and `CNC(=O)Nc1ccc(-c2nc(N3CC4CCC(C3)O4)c3c(n2)C(C)(C)CO3)cc1` [Example 4, 1-(4-(4-(8-oxa-3-azabicyclo[3.2.1]octan-3-yl)-7,7-dimethyl-6,7-dihydrofuro[3,2-d]pyrimidin-2-yl)phenyl)-3-methylurea], with < 31.6 nM.

`CCNC(=O)Nc1ccc(-c2nc(N3CCOCC3)c3c(n2)C2(CC2)OC3)cc1` [Example 14, 1-ethyl-3-(4-(4′-morpholino-5′H-spiro[cyclopropane-1,7′-furo[3,4-d]pyrimidine]-2′-yl)phenyl)urea]: the IC50 was < 31.6 nM. Consider `CNC(=O)Nc1ccc(-c2nc(N3CCOCC3)c3c(n2)C2(CC2)OC3)cc1` [Example 16, 1-methyl-3-(4-(4′-morpholino-5′H-spiro[cyclopropane-1,7′-furo[3,4-d]pyrimidine]-2′-yl)phenyl)urea], for which the IC50 was < 31.6 nM. The same measure for `CC1(C)OCc2c(N3CCOCC3)nc(-c3ccc(NC(=O)NC4CC4)cc3)nc21` [Example 11, 1-cyclopropyl-3-(4-(7,7-dimethyl-4-morpholino-5,7-dihydrofuro[3,4-d]pyrimidin-2-yl)phenyl)urea]: < 31.6 nM; for `CNC(=O)Nc1ccc(-c2nc(N3CC4CCC(C3)O4)c3c(n2)C(C)(C)OC3)cc1` [Example 6, 1-(4-(4-(8-oxa-3-azabicyclo[3.2.1]octan-3-yl)-7,7-dimethyl-5,7-dihydrofuro[3,4-d]pyrimidin-2-yl)phenyl)-3-methylurea]: < 31.6 nM.

Regarding `CCNC(=O)Nc1ccc(-c2nc(N3CCOCC3)c3c(n2)C(C)(C)OC3)cc1` [Example 10], the IC50 is < 31.6 nM.

As to `CNC(=O)Nc1ccc(-c2nc(N3CC4CCC(C3)O4)c3c(n2)C2(CC2)OC3)cc1` [Example 13, 1-(4-(4′-(8-oxa-3-azabicyclo[3.2.1]octan-3-yl)-5′H-spiro[cyclopropane-1,7′-furo[3,4-d]pyrimidine]-2′-yl)phenyl)-3-methylurea], the IC50 is < 31.6 nM.
